# What was measured:
# [1] = tested on: Aurora B (Y156H); design: method as in PMID 22935731; details: Y156H mutant, 1 mM ATP; read-out: Biochemical IC50 (95% confidence limits); cited from earlier work
# [2] = tested on: TEL:VEGFR1 catalytic domain fusion; design: method as in PMID 22935731; details: BaF3 cells expressing TEL:VEGFR1, proliferation as surrogate readout; read-out: Cellular PD marker IC50 (95% confidence limits); cited from earlier work
# [3] = tested on: Aurora kinase B; experiment: pHH3 immunohistochemistry in skin punch biopsies; format: in vivo, human; details: 8 mg i.v. and 60‒340 mg PO BID
# [4] = tested on: CSF-1R; design: method as in PMID 22935731; details: CSF-1R cellular phosphorylation, ligand stimulated; read-out: Cellular PD marker IC50 (95% confidence limits); cited from earlier work
# [5] = tested on: VEGFR1; design: method as in PMID 22935731; details: 1 mM ATP; read-out: Biochemical IC50 (95% confidence limits); cited from earlier work
# [6] = tested on: VEGFR2; design: method as in PMID 22935731; details: cited from earlier work
# [7] = tested on: Aurora C; design: method as in PMID 22935731; details: Aurora C autophosphorylation, nocodazole-arrested HeLa cells; read-out: Cellular PD marker IC50 (95% confidence limits); cited from earlier work
# [8] = tested on: advanced solid tumours; experiment: Tumour response, RECIST version 1.1; format: in vivo, human; details: Arm II
# Experimental: Disease effect endpoints were determined using Response Evaluation Criteria In Solid Tumors version 1.1. Tumour burden assessment was conducted within 21 days prior to cycle 1 day 1, every 8 weeks thereafter, and at the final visit if not performed in the past 4 weeks.
# [9] = tested on: Aurora B; design: method as in PMID 22935731; details: phosphorylation of histone H3, read-out: Cellular PD marker IC50 (95% confidence limits); cited from earlier work
# [10] = tested on: VEGFR3; design: method as in PMID 22935731; details: 1 mM ATP; read-out: Biochemical IC50 (95% confidence limits); cited from earlier work
# [11] = tested on: PDGFR-β; design: method as in PMID 22935731; details: PDGFR-β cellular phosphorylation, ligand stimulated; read-out: Cellular PD marker IC50 (95% confidence limits); cited from earlier work
# [12] = tested on: Aurora A; design: method as in PMID 22935731; details: 1 mM ATP; read-out: Biochemical IC50 (95% confidence limits); cited from earlier work
# [13] = 40 mg BID, basal cell carcinoma patient
# [14] = 230 mg BID, adenocarcinoma of unknown primary site
structure (smiles),measurement,setting,value
"Nc1ncc(-c2cnn(CCO)c2)c2scc(-c3ccc(NC(=O)Nc4cccc(F)c4)cc3)c12 [ilorasertib, Ilorasertib]",IC50,[1],[…]
same,IC50,[2],0.0003 µM
same,pHH3 in epidermis with increasing exposure,[3],dose-dependent decreases of pHH3
same,IC50,[5],0.001 µM
same,IC50,"[6]; VEGFR2 cellular phosphorylation, ligand stimulated, read-out: Cellular PD marker IC50 (95% confidence limits)",0.005 µM
same,Potency of VEGFR2 inhibition relative to Aurora kinase B,[6]; cellular assays,two- to five-fold more potent
same,Best response,[8]; [13],partial response
same,Best response,[8]; [14],partial response
same,IC50,[10],0.043 µM
same,IC50,[11],0.011 µM
